Experimental data reported in patent US8686146B2, “Azaindenoisoquinoline topoisomerase I inhibitors” (Purdue Research Foundation, priority 2012, dated 2014).
Counter-ions that a name gives are not always drawn. Like-named read-outs stand apart in the source and are kept apart here.

Key:
human recombinant Top1 = target: T1, human recombinant Top1 (Homo sapiens, UniProt P11387); experiment: Top1-mediated DNA cleavage assay; format: biochemical; settings: semiquantitative, relative to compounds 1 and 2
T1 construct: made in house
T1 sequence (P11387 1-765): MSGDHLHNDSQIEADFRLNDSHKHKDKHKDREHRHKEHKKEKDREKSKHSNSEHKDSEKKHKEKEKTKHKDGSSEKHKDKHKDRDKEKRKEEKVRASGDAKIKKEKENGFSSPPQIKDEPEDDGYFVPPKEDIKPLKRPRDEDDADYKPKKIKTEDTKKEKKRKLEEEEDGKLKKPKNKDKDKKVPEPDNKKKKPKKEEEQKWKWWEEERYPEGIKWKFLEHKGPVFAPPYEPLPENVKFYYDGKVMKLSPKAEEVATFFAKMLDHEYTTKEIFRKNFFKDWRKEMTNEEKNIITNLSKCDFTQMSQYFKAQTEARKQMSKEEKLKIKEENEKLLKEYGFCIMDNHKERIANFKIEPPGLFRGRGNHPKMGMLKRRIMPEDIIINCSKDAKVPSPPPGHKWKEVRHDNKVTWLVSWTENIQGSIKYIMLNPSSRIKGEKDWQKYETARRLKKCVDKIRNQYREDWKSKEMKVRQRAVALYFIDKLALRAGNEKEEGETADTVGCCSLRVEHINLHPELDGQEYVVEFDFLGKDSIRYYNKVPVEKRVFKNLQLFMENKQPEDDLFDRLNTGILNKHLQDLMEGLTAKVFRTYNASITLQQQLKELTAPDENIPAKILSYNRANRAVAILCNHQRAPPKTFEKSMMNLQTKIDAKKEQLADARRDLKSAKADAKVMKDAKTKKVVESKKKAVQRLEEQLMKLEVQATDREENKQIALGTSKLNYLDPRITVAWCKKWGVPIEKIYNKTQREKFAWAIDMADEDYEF
Procedure: Unincorporated [^32P]dGTP was removed using mini Quick […] columns (Roche, Indianapolis, Ind.), and the eluate containing the […] DNA substrate was collected. […] Aliquots of each reaction mixture were subjected to 20% denaturing PAGE. […] The DNA fragments were separated on a denaturing gel. […] All of the target compounds were tested for induction of DNA damage in Top1-mediated DNA cleavage assays, as described above.

MCF7 = experiment: NCI screen antiproliferative activity, breast MCF7
Procedure: (§1) Cells of approximately 60 different human cancer cell lines were incubated for 48 h with five 10-fold dilutions of the tested compounds starting from 100 μM and then treated with sulforhodamine B dye. The ratios of recorded optical densities relative to that of the control were plotted as a function of the common logarithm of the tested compound concentrations. […] The GI50 and the mean graph midpoint (MGM) values of the prepared indenoisoquinolines in selected cell lines are presented in Table I.
(§2) The antiproliferative activity of each compound was determined in the National Cancer Institute (NCI) screen as described above. Cells of approximately 60 different human cancer cell lines were incubated for 48 h with five 10-fold dilutions of the test compounds starting from 100 μM, and then treated with sulforhodamine B dye. The ratios of recorded optical densities relative to those of the control were plotted as a function of the common logarithm of the tested compound concentrations. […] The GI50 and the mean graph midpoint (MGM) values of the prepared (aza)indeno-isoquinolines in selected cell lines are presented in Table 2.

SF-539 = experiment: NCI screen antiproliferative activity, CNS SF-539
Procedure: as §1, §2

HCT-116 = experiment: NCI screen antiproliferative activity, colon HCT-116
Procedure: as §1, §2

[1] = system: approximately 60 different human cancer cell lines; experiment: NCI screen, mean graph midpoint over all cell lines; format: cell-based; settings: all human cancer cell lines successfully tested, 48 h
Procedure: as §1, §2

SN12C = experiment: NCI screen antiproliferative activity, renal SN12C
Procedure: as §1, §2

UACC-62 = experiment: NCI screen antiproliferative activity, melanoma UACC-62
Procedure: as §1, §2

HOP-62 = experiment: NCI screen antiproliferative activity, lung HOP-62
Procedure: as §1, §2

DU-145 = experiment: NCI screen antiproliferative activity, prostate DU-145
Procedure: as §1, §2

OVCAR-3 = experiment: NCI screen antiproliferative activity, ovarian OVCAR-3
Procedure: as §1, §2

[2] = Homo sapiens, MCF7, 48 h, read-out: cytotoxicity (GI50) breast MCF7, 48 h, sulforhodamine B, single determination, Table 2
[3] = Homo sapiens, 48 h, read-out: cytotoxicity (GI50) CNS SF-539, 48 h, sulforhodamine B, single determination, Table 2
[4] = Homo sapiens, HCT-116, 48 h, read-out: cytotoxicity (GI50) colon HCT-116, 48 h, sulforhodamine B, single determination, Table 1
[5] = Homo sapiens, HCT-116, 48 h, read-out: cytotoxicity (GI50) colon HCT-116, 48 h, sulforhodamine B, single determination, Table 2
[6] = Homo sapiens, SN12C, 48 h, read-out: cytotoxicity (GI50) renal SN12C, 48 h, sulforhodamine B, single determination, Table 1
[7] = Homo sapiens, SN12C, 48 h, read-out: cytotoxicity (GI50) renal SN12C, 48 h, sulforhodamine B, single determination, Table 2
[8] = Homo sapiens, UACC-62, 48 h, read-out: cytotoxicity (GI50) melanoma UACC-62, 48 h, sulforhodamine B, single determination, Table 1
[9] = Homo sapiens, UACC-62, 48 h, read-out: cytotoxicity (GI50) melanoma UACC-62, 48 h, sulforhodamine B, single determination, Table 2
[10] = Homo sapiens, HOP-62, 48 h, read-out: cytotoxicity (GI50) lung HOP-62, 48 h, sulforhodamine B, single determination, Table 1
[11] = Homo sapiens, HOP-62, 48 h, read-out: cytotoxicity (GI50) lung HOP-62, 48 h, sulforhodamine B, single determination, Table 2
[12] = Homo sapiens, DU-145, 48 h, read-out: cytotoxicity (GI50) prostate DU-145, 48 h, sulforhodamine B, single determination, Table 1
[13] = Homo sapiens, DU-145, 48 h, read-out: cytotoxicity (GI50) prostate DU-145, 48 h, sulforhodamine B, single determination, Table 2
[14] = Homo sapiens, MCF7, 48 h, read-out: cytotoxicity (GI50) breast MCF7, 48 h, sulforhodamine B, single determination, Table 1
[15] = Homo sapiens, OVCAR-3, 48 h, read-out: cytotoxicity (GI50) ovarian OVCAR-3, 48 h, sulforhodamine B, single determination, Table 1

O=C1c2cccnc2-c2c1c1ccc([N+](=O)[O-])cc1c(=O)n2CCCN1CCOCC1 [Compound 23, 7-Aza-5,6-dihydro-6-(3-morpholinopropyl)-3-nitro-5,11-dioxo-1H-indeno-[1,2-c]isoquinoline Hydrochloride]
Top1 Cleavage (human recombinant Top1; Table 1): +++

COc1cc2c3c(n(CCCN(C)C)c(=O)c2cc1OC)-c1cnccc1C3=O.O=C(O)C(F)(F)F [Compound 117, 8-Aza-5,6-dihydro-6-(3-dimethylaminopropyl)-2,3-dimethoxy-5,11-dioxo-11H-indeno[1,2-c]isoquinoline Trifluoroacetate]
Top1 Cleavage (human recombinant Top1; Table 2): ++

CC[C@@]1(O)C(=O)OCc2c1cc1n(c2=O)Cc2cc3ccccc3nc2-1 [Compound 1, camptothecin, reference compound]
GI50 (MCF7; [2]): 13 nM
GI50 (SF-539; [3]): 10 nM
GI50 (HCT-116; [4]): 30 nM
GI50 (HCT-116; [5]): 30 nM
MGM (mean graph midpoint for growth inhibition) ([1]; Table 1): 0.04 µM
MGM (mean graph midpoint for growth inhibition) ([1]; Table 2): 0.040 µM
GI50 (SN12C; [6]): 20 nM
GI50 (SN12C; [7]): 20 nM
GI50 (UACC-62; [8]): 10 nM
GI50 (UACC-62; [9]): 10 nM
GI50 (HOP-62; [10]): 10 nM
GI50 (HOP-62; [11]): 10 nM
GI50 (DU-145; [12]): 10 nM
GI50 (DU-145; [13]): 10 nM

COc1cc2c3c(n(CCCN)c(=O)c2cc1OC)-c1ncccc1C3=O.Cl [Compound 32, 7-Aza-5,6-dihydro-6-(3-aminopropyl)-2,3-dimethoxy-5,11-dioxo-11H-indeno[1,2-c]isoquinoline Hydrochloride]
GI50 (MCF7): 49000 nM
GI50 (OVCAR-3): 1580 nM
GI50 (SF-539): 2190 nM
GI50 (HCT-116): 380 nM
MGM (mean graph midpoint for growth inhibition) ([1]; Table 1): 2.09 µM
GI50 (SN12C): 2880 nM
GI50 (UACC-62): 8130 nM
GI50 (HOP-62): 3020 nM
GI50 (DU-145): 1620 nM

COc1cc2c3c(n(CCCNCCO)c(=O)c2cc1OC)-c1ncccc1C3=O.Cl [Compound 31, 7-Aza-5,6-dihydro-6-(3-(2-hydroxyethylamino)propyl)-2,3-dimethoxy-5,11-dioxo-11H-indeno[1,2-c]isoquinoline Hydrochloride]
GI50 (MCF7): 74 nM
GI50 (OVCAR-3): 340 nM
GI50 (SF-539): 260 nM
GI50 (HCT-116): 150 nM
MGM (mean graph midpoint for growth inhibition) ([1]; Table 1): 0.29 µM
GI50 (SN12C): 230 nM
GI50 (UACC-62): 120 nM
GI50 (HOP-62): 300 nM
GI50 (DU-145): 320 nM

CN(C)CCCn1c2c(c3ccccc3c1=O)C(=O)c1cccnc1-2 [Compound 18, 7-Aza-5,6-dihydro-6-(3-dimethylaminopropyl)-5,11-dioxo-11H-indeno[1,2-c]-isoquinoline Hydrochloride]
GI50 (MCF7; [14]): 250 nM
GI50 (OVCAR-3; [15]): 2570 nM
GI50 (HCT-116; [4]): 410 nM
MGM (mean graph midpoint for growth inhibition) ([1]; Table 1): 1.78 µM
GI50 (SN12C; [6]): 810 nM
GI50 (UACC-62; [8]): 2690 nM
GI50 (HOP-62; [10]): 1510 nM
Top1 Cleavage (human recombinant Top1; Table 1): +++
GI50 (DU-145; [12]): 1350 nM

COc1cc2c3c(n(CCCN(C)C)c(=O)c2cc1OC)-c1ccccc1C3=O [Compound 34, reference compound]
GI50 (MCF7; [14]): 6170 nM
GI50 (OVCAR-3; [15]): 5890 nM
GI50 (SF-539; Homo sapiens, 48 h, read-out: cytotoxicity (GI50) CNS SF-539, 48 h, sulforhodamine B, single determination, Table 1): 6170 nM
GI50 (HCT-116; [4]): 2450 nM
MGM (mean graph midpoint for growth inhibition) ([1]; Table 1): 6.17 µM
GI50 (SN12C; [6]): 11000 nM
GI50 (UACC-62; [8]): 6610 nM
GI50 (HOP-62; [10]): 11500 nM
GI50 (DU-145; [12]): 4470 nM

COc1ccc2c(n1)C(=O)c1c-2n(CCCN(C)C)c(=O)c2cc(OC)c(OC)cc12.O=C(O)C(F)(F)F [Compound 45, 10-Aza-5,6-dihydro-6-(3-dimethylaminopropyl)-2,3,9-trimethoxy-5,11-dioxo-11H-indeno[1,2-c]isoquinoline Trifluoroacetate]
Top1 Cleavage (human recombinant Top1; Table 2): +++

COc1ccc2c(n1)C(=O)c1c-2n(CCCN2CCOCC2)c(=O)c2cc(OC)c(OC)cc12.O=C(O)C(F)(F)F [Compound 46, 10-Aza-5,6-dihydro-6-(3-(4-morpholino)propyl)-2,3,9-trimethoxy-5,11-dioxo-11H-indeno[1,2-c]isoquinoline Trifluoroacetate]
Top1 Cleavage (human recombinant Top1; Table 2): +++

COc1cc2c3c(n(C)c(=O)c2cc1OC)-c1cc2c(cc1C3=O)OCO2 [Compound 2, reference compound]
GI50 (MCF7; [14]): 1910 nM
GI50 (MCF7; [2]): 1900 nM
GI50 (SF-539; [3]): 1700 nM
GI50 (HCT-116; [4]): 11500 nM
GI50 (HCT-116; [5]): 11500 nM
MGM (mean graph midpoint for growth inhibition) ([1]; Table 1): 8.51 µM
MGM (mean graph midpoint for growth inhibition) ([1]; Table 2): 8.5 µM
GI50 (SN12C; [6]): 25700 nM
GI50 (SN12C; [7]): 26000 nM
GI50 (UACC-62; [9]): 560 nM
GI50 (HOP-62; [10]): 2820 nM
GI50 (HOP-62; [11]): 2800 nM
GI50 (DU-145; [12]): 4790 nM
GI50 (DU-145; [13]): 4800 nM

COc1cc2c3c(n(CCCN(C)C)c(=O)c2cc1OC)-c1cccnc1C3=O.O=C(O)C(F)(F)F [Compound 37, 10-Aza-5,6-dihydro-6-(3-dimethylaminopropyl)-2,3-dimethoxy-5,11-dioxo-11H-indeno[1,2-c]isoquinoline Trifluoroacetate]
Top1 Cleavage (human recombinant Top1; Table 2): ++

CN(C)CCCn1c2c(c3ccccc3c1=O)C(=O)c1ccccc1-2 [Compound 33, reference compound]
GI50 (MCF7; [14]): 550 nM
GI50 (OVCAR-3; [15]): 1660 nM
GI50 (HCT-116; [4]): 580 nM
MGM (mean graph midpoint for growth inhibition) ([1]; Table 1): 1.86 µM
GI50 (SN12C; [6]): 910 nM
GI50 (UACC-62; [8]): 510 nM
GI50 (HOP-62; [10]): 1740 nM
GI50 (DU-145; [12]): 1320 nM

Cl.O=C1c2cccnc2-c2c1c1ccccc1c(=O)n2CCCN1CCOCC1 [Compound 21, 7-Aza-5,6-dihydro-6-(3-morpholinopropyl)-5,11-dioxo-11H-indeno[1,2-c]iso-quinoline Hydrochloride]
GI50 (MCF7): 2750 nM
GI50 (OVCAR-3): 28200 nM
GI50 (SF-539): 5620 nM
GI50 (HCT-116): 1860 nM
MGM (mean graph midpoint for growth inhibition) ([1]; Table 1): 15.49 µM
GI50 (SN12C): 5370 nM
GI50 (UACC-62): > 100000 nM
GI50 (HOP-62): 35500 nM
GI50 (DU-145): 3550 nM

COc1cc2c3c(n(CCCn4ccnc4)c(=O)c2cc1OC)-c1ncccc1C3=O [Compound 29, 7-Aza-5,6-dihydro-6-(3-(1H-imidazol-1-yl)propyl)-2,3-dimethoxy-5,11-dioxo-11H-indeno[1,2-c]isoquinoline]
Top1 Cleavage (human recombinant Top1; Table 1): ++
